The results in this text go back to EPA's ToxValDB 9.5 (doi:10.2903/j.efsa.2018.5152).

One series concerns Typhlodromus pyri. Nature of the series: LR50; higher = less toxic. The note with it: not reported; mortality.
Another series relates to Apis mellifera. To be noted: acute, mortality.
The subject of a further series is Tagia sp. The note with it: chronic/long-term; duration: 28 days; reproduction.
For series [1] the following is noted: short-term; duration: 28 days; reproduction.
The next series deals with Colinus virginianus. To be noted: chronic.
Another series relates to Aphidius rhopalosiphi. Nature of the series: LR50; higher = less toxic. To be noted: not reported; mortality.
The test system of another series is Oncorhynchus mykiss. The note with it: acute; duration: 96 hours; mortality.

`[Cl-].[Cu+2].[Cu+2].[OH-].[OH-].[OH-]` [Dicopper chloride trihydroxide]: the LR50 with Typhlodromus pyri is more than 14900 g/ha. In the series with Daphnia magna (chronic/long-term, duration: 21 days, reproduction), this compound had an NOEC of 0.0076 mg/L. The LD50 with Apis mellifera (dermal) was determined as 44.3 µg/piece; in the series with Apis mellifera (oral, unspecified), 12.1 µg/piece.
In the case of `[Cl][Cu][Cl]` [Copper(II) chloride], the values for the NOEC (in the series with Tagia sp.; in series [1]) were 8.4 mg/kg and 16.2 mg/kg-day, respectively.
Consider `O.O.[Cu]` [Copper hydroxide (Cu(OH)2)], for which the LR50 with Typhlodromus pyri was more than 14900 g/ha. The compound further had an LC50 in the series with Daphnia magna (acute, duration: 48 hours, mortality) of 0.0266 µg/mL. The compound also had an LD50 with Apis mellifera (dermal) of 44.5 µg/piece. Further, the NOEL in the series on Colinus virginianus is 5.05 mg/kg-day.
Consider `[Cu+].[Cu+].[O-2]` [Cuprous oxide], for which the LR50 in the series with Aphidius rhopalosiphi is 39200 g/ha; with Typhlodromus pyri, more than 26100 g/ha. This compound displayed an LC50 with Oncorhynchus mykiss of 0.207 µg/mL.
